Source: patent US6875886B2, “Modified PSMA ligands and uses related thereto” (Beth Israel Deaconess Medical Center, Inc., priority 2001, dated 2005)
Where a SMILES comes first, the peptide text is derived from it.

Assays:
NAALADase = NAALADase with NAAG as substrate; cited from earlier work
PSMA = PSMA (Homo sapiens, UniProt Q04609); test: 3H-NAAG assay of PSMA enzymatic activity; type: biochemical
Excerpt: To determine the effects of several PSMA ligands and modified PSMA ligands (β-AG/78) on PSMA activity, ^3H-NAAG assay (Slusher et al., J. Biol. Chem., 1990, 265: 21297-301) was used to measure the activity of PSMA at the presence or absence of several PSMA ligands.
β-AG/78 (FIG. 5, bottom panel) is a conjugate of β-AG and the near-infrared fluorophore IRDye78. The conjugate can be synthesized using a similar scheme as shown in Example 1, and the product can be purified using either TLC (not shown) or HPLC, as shown in FIG. 6. As a control, IRDye78 was also tested. The results were shown as percentage of remaining PSMA activity as compared to PSMA activity without any additives, over a range of inhibitor concentrations.

PSMA, sequence (Q04609 whole entry): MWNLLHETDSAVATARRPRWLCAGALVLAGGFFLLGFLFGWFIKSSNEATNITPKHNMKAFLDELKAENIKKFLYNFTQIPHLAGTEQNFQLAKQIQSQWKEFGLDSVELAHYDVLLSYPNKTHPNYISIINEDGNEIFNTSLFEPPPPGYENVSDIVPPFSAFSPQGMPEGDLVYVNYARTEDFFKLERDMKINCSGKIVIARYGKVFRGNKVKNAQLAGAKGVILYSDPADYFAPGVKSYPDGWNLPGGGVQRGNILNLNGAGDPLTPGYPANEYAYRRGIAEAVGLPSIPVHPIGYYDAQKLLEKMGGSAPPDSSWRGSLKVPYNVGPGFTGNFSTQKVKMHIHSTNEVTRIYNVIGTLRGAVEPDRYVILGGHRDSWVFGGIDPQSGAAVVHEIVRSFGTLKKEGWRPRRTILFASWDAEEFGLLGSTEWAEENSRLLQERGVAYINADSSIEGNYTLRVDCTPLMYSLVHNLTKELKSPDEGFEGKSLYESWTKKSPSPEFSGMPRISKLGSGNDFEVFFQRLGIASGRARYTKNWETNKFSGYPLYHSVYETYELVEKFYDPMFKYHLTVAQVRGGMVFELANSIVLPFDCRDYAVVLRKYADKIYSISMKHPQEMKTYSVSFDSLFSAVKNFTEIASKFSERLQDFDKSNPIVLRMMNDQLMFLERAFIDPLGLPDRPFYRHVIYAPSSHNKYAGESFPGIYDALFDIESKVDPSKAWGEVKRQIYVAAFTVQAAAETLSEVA

Structure (SMILES)	Km (NAALADase) [µM]	inhibitory potency relative to comparator (PSMA; comparison of inhibition curves)	inhibition of PSMA enzymatic activity (PSMA; percentage of remaining PSMA activity over a range of inhibitor concentrations)
CC(=O)N[C@@H](CC(=O)O)C(=O)N[C@@H](CCC(=O)O)C(=O)O [NAAG, N-acetyl-aspartyl-glutamate] (Ac-Asp-Glu-OH)	0.54	–	–
N[C@@H](CC(=O)N[C@@H](CCC(=O)O)C(=O)O)C(=O)O [β-AG, β-Asp-Glu]	–	slightly less potent than that of beta-N-acetyl-AG (β-NAAG)	is indeed an inhibitor of PSMA enzymatic activity
